Results as given in patent US9023385B2, “Pharmaceutical use of 2-(4-morpholinoaniline)-6-cyclohexyl aminopurine and/or salt thereof for improving liver functioning” (Zhangzhou Pien Tze Huang Pharmaceutical Co., Ltd., priority 2011, dated 2015).
Entries after “also recorded” stand apart in the source; their conditions may differ.

Experiments:
[1] = tested on: CCl4-induced liver fibrosis; details: Sprague-Dawley rats, CCl4 i.p. 6 weeks, then 50 or 100 μg/kg i.p. twice a week for two or four weeks
Protocol: Twenty-four adult male Sprague-Dawley rats (500-600 g) were divided into 4 groups (n=6), the first group (control) was injected with carbon tetrachloride (CCl4) intraperitonally (i.p.) twice per week for 6 weeks to induce liver fibrosis. […] At the end of the experimentation, the different groups of rats were sacrificed and samples of the liver were collected and fixed in 4% buffered formalin for 24 hours. Paraffin embedded samples were sectioned for histology and immunohistochemistry. Liver samples were also collected and stored in −20° C. for Western Blot Analysis and RT-PCR quantification.

[2] = tested on: activated rat hepatic stellate cells; details: 5-10 μM
Protocol: The isolation of the rat hepatic stellate cells: The liver of an adult male Sprague-Dawley rats (500-600 g) were excised out after perfusion with pronase and collagenase. The liver tissue was homogenized and centrifuged. […] The cells were cultured in DMEM (Dulbecco Meliorated Eagle Medium) with 20% FBS inside culture plates at a cell density of 1.5×10^5 cells/cm^2. After two days incubation, the culture medium was changed and the cell debris was washed and removed.
The culture condition of rat hepatic stellate cells: The rat hepatic stellate cells were cultured in DMEM containing 20% fetal bovine serum (FBS), penicillin (100 U/ml) and streptomycin (100 ug/ml) at 37° C. in 5% CO2. The culture medium was changed for every fourth day.
The inhibitory effect of 2-(4-morpholinoaniline)-6-cyclohexyl aminopurine on activated rat hepatic stellate cells: The cells were treated with 5-10 μM of 2-(4-morpholinoaniline)-6-cyclohexyl aminopurine for 24 hours. The treated cells were then collected for Microarrays analysis. The treated cells were also processed for immunofluorescence staining and RT-PCR quantification.
The western blot analysis: The cells are disrupted in 200 μl lysis buffer (50 mM NaCl, 20 mM Tris (trihydroxymethyl aminomethane) pH 7.6, 1% Nonidet P-40, 1× protease inhibitor compounds) for 1 hour at 4° C. After incubation, the lysate was centrifuged at 16,000×g for 10 mins. The supernatant was transferred to a new tube and a protein quantification kit was used to quantify the concentration of proteins in each samples. 25 μg of total protein from each sample was loaded into the 10% SDS PAGE gel for analysis. Collagen-I, MMP-2, MMP-3, TIMP-2 and TIMP-3 mouse monoclonal antibodies (Santa Cruz Lab) were used to analyze the samples. Beta-actin and beta-tubulin monoclonal antibodies (1:1000 diluted) were used as internal control and normalization.

SMILES: c1nc2c(NC3CCCCC3)nc(Nc3ccc(N4CCOCC4)cc3)nc2[nH]1 [2-(4-morpholinoaniline)-6-cyclohexyl aminopurine]
- Collagen synthesis in liver (histology, FIG. 5) [1]: effective in inhibiting collagen synthesis
- Expression and synthesis of matrix metalloproteinases-2 (MMP-2) by activated hepatic stellate cells ([2]; treatment for 3 days (FIG. 3B)): inhibited them from expressing and synthesizing and MMP-2; also recorded: suppressed activated hepatic stellate cells from expressing and synthesizing MMP-2 and MMP-3
- Expression and synthesis of matrix metalloproteinases-3 (MMP-3) by activated hepatic stellate cells ([2]; treatment for 3 days (FIG. 3D)): inhibited them from expressing and synthesizing MMP-3; also recorded: suppressed activated hepatic stellate cells from expressing and synthesizing MMP-2 and MMP-3
- Expression and synthesis of tissue inhibitor of metalloproteinase-2 (TIMP-2) by activated hepatic stellate cells ([2]; treatment for 3 days (FIG. 4B)): could inhibit activated hepatic stellate cells from expressing and synthesizing TIMP-2; also recorded: could inhibit the cells from producing TIMP-2 and TIMP-3
- Expression and synthesis of TIMP-3 by activated hepatic stellate cells ([2]; treatment for 3 days (FIG. 4D)): inhibited them from expressing and synthesizing TIMP-3; also recorded: could inhibit the cells from producing TIMP-2 and TIMP-3
